# Experimental data taken from PubChem BioAssay AID1963846 (Molecular Pharmacology Branch, DTP, NCI, 2024).
# “And” between values parts separate entries of the source, which are not always exact repeats. Equal values may be shown once.
# System: 454973-116-R2-J3-PDC complex spheroid viability
# Experiment: Anticancer human tumor 454973-116-R2-J3-PDC patient-derived pancreatic carcinoma cell line growth inhibition [POLQ]
# Settings: for viability, T/C: stronger effect = lower value
# Description: Multicellular complex tumor spheroid response to Polymerase (POL) inhibitors (novobiocin, ART-558, RP6685) in combination with a variety of drugs and investigational agents in selected tumor cell lines
# The POL inhibitors (novobiocin, ART-558, and RP6685) were evaluated both individually and in combination with standard of care and investigational anticancer small molecules within a complex spheroid model of solid tumors. . Complex spheroids include a stromal component modeled by human endothelial cells (HUVEC) and fibroblasts modeled by human mesenchymal stem cells (MSCs). The concentration ranges selected for each drug and investigational agent were based upon clinically achievable concentrations if the clinical Cmax of the agent was known.
# Compounds. The drugs and investigational agents: novobiocin (NSC847541), ART-558 (NSC835418), RP-6685 (NSC848927), peposertib (NSC802822), ceralasertib (NSC780249), elimusertib (NSC800525), camonsertib (NSC841442), AZD-1390 (NSC803789), olaparib (NSC753686), talazoparib (NSC767125), rucaparib (NSC756644), sotorasib (NSC818433), MRTX-1133 (NSC836407), SN-38 (NSC673596), topotecan (NSC609699), epotoside (NSC141540), doxorubicin (NSC123127), gemcitabine (NSC613327), 5-fluorouracil (NSC19893), paclitaxel (NSC125973), vemurafenib (NSC761431), MSA-2 (NSC828583), SN-011 (NSC837082), adavosertib (NSC754352), prexasertib (NSC758257), carboplatin (NSC241240) and oxaliplatin (NSC266046), were obtained from the National Cancer Institute (NCI) Developmental Therapeutics Program Chemical Repository (21). The FDA-approved anticancer drug set is available from the Developmental Therapeutics Program at https://dtp.cancer.gov/organization/dscb/obtaining/. […] The stock solutions were prepared in dimethyl sulfoxide (DMSO, Sigma-Aldrich, St. Louis, MO, cat. D2650), except for the platinum compounds which were prepared in saline (Quality Biological, Gaithersburg, MD, cat. 114-055-101), at 800-fold the tested concentration and stored at -70 degrees C prior to their use. All drugs and investigational agents were tested over a range starting from a high concentration at or near the clinical Cmax and decreasing in half-log increments. If the clinical Cmax for an agent had not been determined, the highest concentration tested was 10 microM, except for SN-38, which was tested at a high concentration of 1 microM.
# Cell Culture. All cells were maintained in an incubator at 37 degrees C and 5% CO2 with 95% humidity. The PDC lines were cultured according to standard operating procedures established by the NCI PDMR (https://pdmr.cancer.gov). Table 3 of the manuscript, lists the cell lines along with the number of the three cell types plated to form the mct-spheroids and media for tumor cell growth. After thawing, all PDC lines, except 997537-175-T-J1-PDC and 415267-285-R-J2-PDC, were cultured in Matrigel-coated flasks prepared with a working solution of 1X Ham's F-12 nutrient mix, without supplementation (Thermo Fisher Scientific, cat. 11765054), 100 U/mL penicillin-streptomycin (Thermo Fisher Scientific, cat. 15140122), and 2.5% Matrigel (Corning Inc., Corning, NY, cat. 354248) for the first three passages. The two PDC lines 997537-175-T-J1-PDC and 415267-285-R-J2-PDC were cultured on uncoated flasks. The 857933-349-R-J2-PDC line was cultured in 6C/Colon 1B media containing advanced DMEM/F-12 (Thermo Fisher Scientific, cat. 12634028), 10 mM HEPES (Thermo Fisher Scientific, cat. 15630080), 1X GlutaMAX supplement (Thermo Fisher Scientific, cat. 35050061), 0.1 mg/mL primocin (InvivoGen, San Diego, CA, cat. ant-pm-2), 10% defined fetal bovine serum, heat inactivated (HyClone Laboratories Inc., Logan, UT, cat. SH30070.03HI), 50% L-WRN conditioned media (ATCC, cat. CRL-3276), 1.25 mM N-Acetyl-L-cysteine (Sigma-Aldrich, cat. A9165), 10 mM nicotinamide (Sigma-Aldrich, cat. N0636), 1X B-27 supplement (Thermo Fisher Scientific, cat. 17504044), 1X N-2 supplement (Thermo Fisher Scientific, cat. […]
# 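Also: spheroids exposed to drugs for seven days before measurement.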
# 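For viability, T/C in this document: percent viability relative to DMSO vehicle control wells taken as 100%.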
smiles,measurement,setting,value
Cn1ncnc1[C@H]1c2n[nH]c(=O)c3cc(F)cc(c23)N[C@@H]1c1ccc(F)cc1,"viability, T/C",compound 0.000316 µM,112% and 102% (2×)
same,"viability, T/C",compound 0.001 µM,91.7% and 103% and 104%
same,"viability, T/C",compound 0.00316 µM,92.2% and 107% and 93.9%
same,"viability, T/C",compound 0.01 µM,95.1% and 86.6% and 101%
same,"viability, T/C",compound 0.0316 µM,111% and 86.4% and 102%
same,"viability, T/C",compound 0.1 µM,89.9% and 81.5% and 91.9%
same,IC50,curve of compound,> 100 nM
CCc1c2c(nc3ccc(O)cc13)-c1cc3c(c(=O)n1C2)COC(=O)[C@]3(O)CC + Nc1ccc(C#CCN(C(=O)Cc2ncc(C(F)(F)F)cc2C(F)(F)F)c2ccc(F)cc2)nn1,IC50,"curve of first compound, second compound 0.0316 µM",< 3.16 nM
same,IC50,"curve of first compound, second compound 0.1 µM",< 3.16 nM
same,IC50,"curve of first compound, second compound 0.316 µM",< 3.16 nM
same,IC50,"curve of first compound, second compound 1 µM",< 3.16 nM
same,IC50,"curve of first compound, second compound 3.16 µM",< 3.16 nM
same,IC50,"curve of first compound, second compound 10 µM",< 3.16 nM
same,"viability, T/C","second compound 0.0316 µM, first compound 0.00316 µM",25.3%
same,"viability, T/C","second compound 0.0316 µM, first compound 0.01 µM",11.3%
same,"viability, T/C","second compound 0.0316 µM, first compound 0.0316 µM",6.56%
same,"viability, T/C","second compound 0.0316 µM, first compound 0.1 µM",4.56%
same,"viability, T/C","second compound 0.0316 µM, first compound 0.316 µM",1.97%
same,"viability, T/C","second compound 0.0316 µM, first compound 1 µM",1.11%
same,"viability, T/C","second compound 0.1 µM, first compound 0.00316 µM",19%
same,"viability, T/C","second compound 0.1 µM, first compound 0.01 µM",10.4%
same,"viability, T/C","second compound 0.1 µM, first compound 0.0316 µM",6.53%
same,"viability, T/C","second compound 0.1 µM, first compound 0.1 µM",3.88%
same,"viability, T/C","second compound 0.1 µM, first compound 0.316 µM",2.75%
same,"viability, T/C","second compound 0.1 µM, first compound 1 µM",1%
same,"viability, T/C","second compound 0.316 µM, first compound 0.00316 µM",19.8%
same,"viability, T/C","second compound 0.316 µM, first compound 0.01 µM",11.3%
same,"viability, T/C","second compound 0.316 µM, first compound 0.0316 µM",8.55%
same,"viability, T/C","second compound 0.316 µM, first compound 0.1 µM",4.38%
same,"viability, T/C","second compound 0.316 µM, first compound 0.316 µM",2.3%
same,"viability, T/C","second compound 0.316 µM, first compound 1 µM",0.79%
same,"viability, T/C","second compound 1 µM, first compound 0.00316 µM",21.4%
same,"viability, T/C","second compound 1 µM, first compound 0.01 µM",8.67%
same,"viability, T/C","second compound 1 µM, first compound 0.0316 µM",6.81%
same,"viability, T/C","second compound 1 µM, first compound 0.1 µM",3.42%
same,"viability, T/C","second compound 1 µM, first compound 0.316 µM",1.98%
same,"viability, T/C","second compound 1 µM, first compound 1 µM",0.59%
same,"viability, T/C","second compound 3.16 µM, first compound 0.00316 µM",18.6%
same,"viability, T/C","second compound 3.16 µM, first compound 0.01 µM",9.44%
same,"viability, T/C","second compound 3.16 µM, first compound 0.0316 µM",7.09%
same,"viability, T/C","second compound 3.16 µM, first compound 0.1 µM",4.06%
same,"viability, T/C","second compound 3.16 µM, first compound 0.316 µM",2.05%
same,"viability, T/C","second compound 3.16 µM, first compound 1 µM",0.6%
same,"viability, T/C","second compound 10 µM, first compound 0.00316 µM",19%
same,"viability, T/C","second compound 10 µM, first compound 0.01 µM",10.2%
same,"viability, T/C","second compound 10 µM, first compound 0.0316 µM",5.83%
same,"viability, T/C","second compound 10 µM, first compound 0.1 µM",2.67%
same,"viability, T/C","second compound 10 µM, first compound 0.316 µM",1.43%
same,"viability, T/C","second compound 10 µM, first compound 1 µM",0.54%
